Paper PMC7913925, “Design and Evaluation of a Polypeptide That Mimics the Integrin Binding Site for EDA Fibronectin to Block Profibrotic Cell Activity” (International Journal of Molecular Sciences, 2021)
Bridges are numbered along the chain shown (N, C = ends). Where no end group is shown, it is not given here.

What was measured:
[1] = tested on: F-actin in NIH/3T3 fibroblasts; experiment: F-actin staining; assay type: cell-based, mouse; conditions: 48 h, TGF-β1 10 ng/mL, AF38Pep 10 µg/mL
Experimental: Cells were grown to 40% confluence in 8-well glass chamber slides (Nunc, Thermo Fisher Scientific), prior to growth arrest and treatment. Cells were washed with PBS before fixation in 4% paraformaldehyde for 10 min at room temperature. Next, cells were permeabilized with 0.1% (v/v) Triton X-100 in PBS for 10 min at room temperature. For visualization of ECM, cells were fixed with 100% ice-cold methanol for 8 min at −20 °C. Slides were washed with PBS and blocked with 1% goat serum (TBD Science, Tianjin, China) for 30 min before washing with 0.1% (w/v) BSA in PBS. Subsequently, slides were incubated with monoclonal mouse anti-α-SMA antibody (Sigma-Aldrich, 1:50) diluted in 0.1% BSA-PBS, overnight at 4 °C. After further wash steps, slides were incubated with goat anti-mouse IgG CF-488 secondary antibody (Abcam, 1:1000) in 0.1% BSA-PBS for 1 h at room temperature and under darkness. For F-actin visualization, after fixation and permeabilization; cells were incubated with phalloidin conjugated to FITC (Sigma-Aldrich) in 0.1% BSA-PBS, overnight at 4 °C. Cells were then mounted in DAPI Fluoromount-G (Thermo Fisher Scientific) and imaged using a Zeiss Axio Imager Z1 UV fluorescence microscope (Zeiss, Jena, Germany) and a Leica TCS SP5 laser scanning confocal microscope (Leica Biosystems, Baden-Württemberg, Germany).

[2] = tested on: vascular cell adhesion protein-1 (VCAM1); experiment: Western blot total protein VCAM1; assay type: cell-based; conditions: 48 h TGF-β1, AF38Pep or TGF-β1+AF38Pep
[3] = target: FN-RGD (RGD motif of fibronectin) (Homo sapiens, UniProt P02751); experiment: Isothermal calorimetry, AF38Pep with FN-RGD; assay type: binding; conditions: 25 °C, pH 7
Experimental: Custom designed peptides were resuspended in sterile-filtered HEPES buffered saline (140 mM NaCl, 1.5 mM Na2HPO4, 50 mM HEPES; pH 7). The larger EDA-FN binding peptide was diluted to 15 µM, degassed and added to the calorimetry chamber well. Three smaller test peptides (fibronectin EDA-peptide, FN-EDA; fibronectin RGD-peptide, FN-RGD and collagen I RGD-peptide, COL-RGD) were diluted to 300 µM, degassed and each was separately loaded into the calorimetry injection needle. The chamber well temperature was kept consistent at 25 °C. Blank buffer was used to replace either the well peptide or the injection needle peptide to account for background heat generation. Isothermal titration calorimetry was performed using a MicroCal iTC200 (Malvern Panalytical, Malvern, UK) and dissociation constant (KD) and association constant (KA) were calculated using the one set of sites model fitting (with number of binding sites assumed to be 1) in MicroCal Origin Software v8.5 (Malvern Panalytical).

[4] = tested on: mouse NIH/3T3 dermal fibroblast cells; experiment: Cytotoxicity/proliferation assay (CCK-8) NIH/3T3; assay type: cell-based; conditions: TGF-β1 stimulated NIH/3T3, over 72 h
Experimental: (§1) HFL1 cells were cultured in Kaighn’s modified Ham’s F-12 (F-12K) medium (Sigma-Aldrich) containing NaHCO3 and HEPES buffered to pH 7. Cells were grown to confluence in T75 culture flasks in the presence of 10% fetal bovine serum (FBS; Gibco, Thermo Fisher Scientific, Waltham, MA, USA). HFL1 cells were subcultured using 0.05% trypsin at a ratio of 1:3. NIH/3T3 cells were cultured in Dulbecco’s Modified Eagle Medium (DMEM; HyClone, Thermo Fisher Scientific) containing 100 U/mL penicillin and 100 μg/mL streptomycin. Cells were grown to confluence in T75 culture flasks in the presence of 10% FBS. NIH/3T3 cells were subcultured using 0.05% trypsin/EDTA at a ratio of 1:3. All cells were maintained at 37 °C and 5% CO2, and growth medium was replenished every 3 days until experimentation. Cells were growth-arrested in serum-free medium for 48 h before experiments, and all experiments were performed under serum-free conditions using cells between passages 3 and 8.
(§2) Cells were seeded into 12-well culture plates at a density of 2.5 × 10^4 and when cultures reached 50% confluence, the culture medium was replaced with fresh serum-free F12K or serum-free DMEM/F12 for 48 h (growth arrest). […] Absorbance was measured at 450 nm wavelength using a Bio-Rad optical plate reader.

EDA-FN = experiment: Western blot total protein EDA-FN; assay type: cell-based; conditions: 48 h, TGF-β1+AF38Pep
[5] = tested on: ERK1/2 in NIH/3T3 fibroblasts; experiment: Western blot ERK1/2 phosphorylation; assay type: cell-based, mouse; conditions: TGF-β1 10 ng/mL, AF38Pep 10 µg/mL
Experimental: (§3) Total protein was extracted from cells in RIPA lysis buffer containing 1% protease inhibitor cocktail, 1% phenylmethylsulfonyl fluoride, and 1% sodium orthovanadate (Santa Cruz Biotechnology, Santa Cruz, CA, USA). Protein was quantified by Micro BCA Protein Assay Kit (Thermo Fisher Scientific) before 7.5% SDS-PAGE and transfer to nitrocellulose. Membranes were blocked with 5% bovine serum albumin (BSA; Sigma-Aldrich)/0.5% Tween-20 (Sigma-Aldrich)/PBS for 1 h, RT, followed by incubation with primary antibodies diluted in 1% BSA/0.1% Tween-20/PBS, overnight at 4 °C. Primary antibodies were: anti-phosphoY204/Y187 ERK1/2 (1:1000); anti-ERK1/2 (1:1000); anti-phosphoY861 FAK (1:1000); anti-FAK (1:2000). Immunoblotting for anti-GAPDH (1:2500) was used as a protein loading control. Following wash steps, membranes were incubated in goat anti-rabbit IgG H&L secondary antibody (horseradish peroxidase, HRP conjugate, […]) (Abcam; 1:5000 dilution, 1% BSA/0.1% Tween-20/PBS). Detection was performed using Immobilon reagent (Merck Millipore, Burlington, MA, USA) and imaged using a Tanon 5500 Chemiluminescent Imaging System (Tanon, Shanghai, China).

[6] = tested on: FAK in NIH/3T3 fibroblasts; experiment: Western blot FAK phosphorylation and total protein; assay type: cell-based, mouse; conditions: TGF-β1 10 ng/mL, AF38Pep 10 µg/mL
Experimental: as §3

[7] = tested on: human HFL1 lung fibroblast cells; experiment: Cytotoxicity/proliferation assay (CCK-8) HFL1; assay type: cell-based; conditions: TGF-β1 stimulated HFL1, over 72 h
Experimental: as §1, §2

## VMPYISTTPAKPCTSENCGNSWYGGFKSKNENKIYFIN (disulfide 13-18 (inferred)) [AF38Pep]
[1]
  F-actin fiber assembly: cellular actin reassembly into F-actin fibers still occurred
[2]
  VCAM1 total protein: remained unaffected
[3]
  ITC interaction (thermogram): not between AF38Pep and FN-RGD or COL-RGD
[4]
  cytotoxicity/proliferation: did not interfere with cell proliferation nor incur cell death
EDA-FN
  TGF-β1-driven EDA-FN total protein increase: marginally, but significantly, attenuated
[5]; 1 h
  ERK1/2 phosphorylation: significantly suppressed
[5]; 12 h
  ERK1/2 phosphorylation: not prevented
[6]; 1 h
  FAK phosphorylation: significantly suppressed
[6]; 12 h
  FAK phosphorylation: significantly less activation
  total FAK protein: marginally reduced
[7]
  cytotoxicity/proliferation: not detrimental to cell numbers
